# Target: T1, Solute carrier family 12 member 5 (Homo sapiens, UniProt Q9H2X9)
# T1 sequence (Q9H2X9 whole entry): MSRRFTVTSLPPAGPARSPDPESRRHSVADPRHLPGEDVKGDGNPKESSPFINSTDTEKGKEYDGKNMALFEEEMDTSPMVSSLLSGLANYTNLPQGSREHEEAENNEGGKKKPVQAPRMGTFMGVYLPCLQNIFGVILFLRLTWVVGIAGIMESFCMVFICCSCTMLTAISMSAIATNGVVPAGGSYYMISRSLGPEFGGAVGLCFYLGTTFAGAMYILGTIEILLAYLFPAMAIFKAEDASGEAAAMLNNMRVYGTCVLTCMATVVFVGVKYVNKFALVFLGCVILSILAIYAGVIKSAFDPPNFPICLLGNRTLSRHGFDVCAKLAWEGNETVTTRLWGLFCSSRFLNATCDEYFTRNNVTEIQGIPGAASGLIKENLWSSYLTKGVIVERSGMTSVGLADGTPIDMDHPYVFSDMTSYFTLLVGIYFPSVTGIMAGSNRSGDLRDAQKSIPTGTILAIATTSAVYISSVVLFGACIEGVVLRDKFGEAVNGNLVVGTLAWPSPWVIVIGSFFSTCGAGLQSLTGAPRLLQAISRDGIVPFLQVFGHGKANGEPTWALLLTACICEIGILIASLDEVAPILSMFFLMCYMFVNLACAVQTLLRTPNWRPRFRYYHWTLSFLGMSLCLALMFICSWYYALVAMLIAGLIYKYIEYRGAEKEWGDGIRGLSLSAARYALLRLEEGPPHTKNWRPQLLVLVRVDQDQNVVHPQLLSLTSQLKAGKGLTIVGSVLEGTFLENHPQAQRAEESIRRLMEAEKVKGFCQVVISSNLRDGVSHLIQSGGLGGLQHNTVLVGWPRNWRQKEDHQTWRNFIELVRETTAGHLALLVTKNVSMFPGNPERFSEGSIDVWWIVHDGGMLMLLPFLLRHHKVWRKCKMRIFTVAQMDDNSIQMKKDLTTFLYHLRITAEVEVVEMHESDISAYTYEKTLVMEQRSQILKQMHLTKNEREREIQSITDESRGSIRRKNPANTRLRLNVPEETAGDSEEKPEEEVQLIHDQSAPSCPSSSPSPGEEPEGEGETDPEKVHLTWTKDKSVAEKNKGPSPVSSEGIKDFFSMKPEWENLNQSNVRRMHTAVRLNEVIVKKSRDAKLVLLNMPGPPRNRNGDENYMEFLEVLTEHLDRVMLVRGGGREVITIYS
# Assay: KCC2 cotransport modulators, dose response, cell-based, assay 2 (AID 1723)
# Conditions: not given
row,SMILES,EC50
1,"O=C(NC(=S)Nc1nc(-c2cccc([N+](=O)[O-])c2)cs1)c1ccccc1Cl [2-chloranyl-N-[[4-(3-nitrophenyl)-1,3-thiazol-2-yl]carbamothioyl]benzamide]",74 µM
2,CC(C)c1ccc(OCC(=O)NNC(=O)c2cnccn2)cc1 [MLS000332605],17 µM
3,O=[N+]([O-])c1ccc(-c2cn(-c3ccccc3F)c(=S)[nH]2)cc1,0.507 µM
4,"Fc1cccc(F)c1C=NNC(=S)Nc1cccnc1 [1-[(2,6-difluorobenzylidene)amino]-3-(3-pyridyl)thiourea]",25.4 µM
5,CCOc1cccc(C(=O)NC(=S)Nc2cccc(C)c2)c1 [3-ethoxy-N-(m-tolylthiocarbamoyl)benzamide],1.33 µM
6,O=C(C=Cc1ccccc1)CC(=O)c1ccccc1O [MLS000627068],23.6 µM
7,"CCOc1[nH]n(-c2ccccc2)c(=O)c1C=Nc1ccc(F)cc1F [(4E)-4-[[[2,4-bis(fluoranyl)phenyl]amino]methylidene]-5-ethoxy-2-phenyl-pyrazol-3-one]",976 µM
8,COC(=O)c1sccc1NC(=S)OC [3-(methoxycarbothioylamino)thiophene-2-carboxylic acid methyl ester],2.46 µM
9,"S=C(NCCc1ccccc1)NN=Cc1cccc(Cl)c1Cl [1-[(2,3-dichlorobenzylidene)amino]-3-phenethyl-thiourea]",14.9 µM
10,O=C1OC(c2ccc(O)cc2)(c2ccc(O)cc2)c2ccccc21,8.04 µM
11,Cc1cccc(N2CCN(C(=O)CCCn3c(=S)[nH]c4cc5c(cc4c3=O)OCO5)CC2)c1C [MLS000095366],9.51 µM
12,"Oc1ccccc1CN=Nc1nc2ccccc2o1 [(6E)-6-[(1,3-benzoxazol-2-ylhydrazo)methylidene]-1-cyclohexa-2,4-dienone]",49 µM
13,O=[N+]([O-])c1ccccc1C=C[CH+][N-]n1c(-c2ccc(Cl)cc2)n[nH]c1=S [MLS000555506],148 µM
14,COc1cc(NC(=S)NC(=O)c2ccco2)ccc1NC(=O)C(C)C [MLS000672338],12 µM
15,Cc1[nH]n2c(=O)cc(C(C)C)nc2c1-c1ccccc1,16.1 µM
16,NC(=S)NN=C1C(=O)N(Cc2ccc(F)cc2)c2ccccc21 [1-[(Z)-[1-[(4-fluorophenyl)methyl]-2-oxidanylidene-indol-3-ylidene]amino]thiourea],5.71 µM
17,Cc1nn(-c2nc3ccccc3[nH]2)c(N)c1-c1ccccc1 [MLS000063763],1.42 µM
18,S=c1nc(-c2ccc3c(c2)CCO3)cc[nH]1,11.2 µM
19,O=c1c2ccccc2[nH]c(=S)n1CCN1CCC(=C(c2ccc(F)cc2)c2ccc(F)cc2)CC1 [SMR000058550],8.8 µM

# Same assay, conditions: inactive by the depositor's call
row,SMILES,EC50
1,Cc1ccc(-c2ccc(C=NNC(N)=S)o2)cc1 [1-[[5-(4-methylphenyl)furan-2-yl]methylideneamino]thiourea],47 µM
